# Measurements published in article PMC11302688, “The Effect of Replication Protein A Inhibition and Post-Translational Modification on ATR Kinase Signaling” (Research Square, 2024).
# Read-outs that look alike come from different tables or passages of the source.
# Tests used:
# ATR-ATRIP = target: T1, ATR-ATRIP (Homo sapiens, UniProt P27694); test: Reconstituted ATR kinase assay (western blot of phosphorylation targets); format: biochemical; conditions: for IC50: fully reconstituted ATR kinase reaction; for ATR-dependent phosphorylation of RPA32 Ser33 and Thr21 / ATR-dependent phosphorylation of p53 Ser15: reconstituted reaction with ssDNA, RPA, TopBP1, ATR-ATRIP, western blot
# T1 construct: His (C); purchased Eurofins DiscoverX 14–953
# T1 sequence (P27694 whole entry): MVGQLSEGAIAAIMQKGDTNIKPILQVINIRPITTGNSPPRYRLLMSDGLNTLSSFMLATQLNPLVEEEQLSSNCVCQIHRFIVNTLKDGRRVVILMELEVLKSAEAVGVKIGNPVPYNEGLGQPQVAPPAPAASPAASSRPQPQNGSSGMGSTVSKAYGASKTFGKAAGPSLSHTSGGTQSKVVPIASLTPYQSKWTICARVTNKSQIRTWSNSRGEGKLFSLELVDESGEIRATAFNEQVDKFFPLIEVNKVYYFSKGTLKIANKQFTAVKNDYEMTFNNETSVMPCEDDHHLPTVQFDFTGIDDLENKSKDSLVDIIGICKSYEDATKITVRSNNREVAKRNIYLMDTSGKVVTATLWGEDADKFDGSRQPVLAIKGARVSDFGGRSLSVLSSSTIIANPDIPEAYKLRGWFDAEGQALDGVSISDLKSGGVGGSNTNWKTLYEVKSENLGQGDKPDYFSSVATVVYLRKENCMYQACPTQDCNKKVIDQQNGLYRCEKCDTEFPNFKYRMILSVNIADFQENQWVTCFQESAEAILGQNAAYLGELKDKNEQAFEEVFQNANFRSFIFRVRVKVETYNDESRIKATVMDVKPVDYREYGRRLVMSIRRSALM
# T1 sequence (P15927 whole entry partner): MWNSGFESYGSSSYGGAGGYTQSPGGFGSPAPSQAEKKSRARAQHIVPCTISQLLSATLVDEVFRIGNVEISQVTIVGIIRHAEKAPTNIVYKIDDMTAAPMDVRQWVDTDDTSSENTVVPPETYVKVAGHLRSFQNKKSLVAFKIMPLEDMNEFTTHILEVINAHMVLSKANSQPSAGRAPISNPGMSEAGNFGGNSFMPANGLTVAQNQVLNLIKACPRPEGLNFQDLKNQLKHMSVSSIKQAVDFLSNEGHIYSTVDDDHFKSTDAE
# T1 sequence (P35244 whole entry partner): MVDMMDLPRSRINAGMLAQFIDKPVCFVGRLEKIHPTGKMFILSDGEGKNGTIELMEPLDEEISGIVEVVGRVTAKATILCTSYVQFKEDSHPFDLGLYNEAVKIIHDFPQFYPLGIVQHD
# Source text: The minimal requirements to reconstitute ATR signaling in vitro are ssDNA, RPA, TopBP1, and ATR-ATRIP, and a phosphorylation target[51]–[54]. We used a similar experimental design with purified RPA, TopBP1, p53, and ATR-ATRIP, and reconstituted ATR activation and signaling using an M13mp18 ssDNA plasmid (Figure S1A-B). It has been reported that TopBP1 can stimulate ATR activity independent of RPA and in the presence or absence of a variety of DNA substrates at specific protein and salt concentrations, though the physiological relevance is unknown. We, therefore, first established physiological experimental conditions to reflect the dependence of ATR kinase activity on RPA, ssDNA, and TopBP1 by monitoring the phosphorylation of the ATR target p53 at Ser15. Low, background levels of ATR-dependent p53 phosphorylation are observed with various combinations of ssDNA, RPA, and TopBP1, however, as expected, maximal activation is observed only in the presence of all three (Fig. 1A–B). Importantly, p53 phosphorylation under our assay conditions was dependent upon RPA and ssDNA. […] (Fig. 1A–B). The RPA70 OB-F domain interacts with p53, and this interaction is thought to facilitate the recruitment of p53 for ATR phosphorylation. p53 also has weak ssDNA binding affinity that could influence it as a substrate for ATR, so we next compared the phosphorylation of wild-type (WT) p53 with that of the DNA-binding-impaired p53 R175H mutant. […] We then evaluated the impact of chemical RPA inhibition on ATR-dependent p53 phosphorylation in the reconstituted reactions. We first assessed the activity of RPA inhibitors that block the RPA-ssDNA interaction (RPA-DBi).
# Kinase assays were performed in 15 mM HEPES pH 7.9, 30 mM KCl, 3 mM MgCl2, 5% glycerol, 1x phosphatase inhibitor cocktail 2 (Sigma-Aldrich, P5726), 0.5 mM DTT. RPAi were suspended in 100% DMSO, and the DMSO concentration in the final reaction mixture was kept constant at 5%. In a typical reaction (20 μL), 20 ng ATR-ATRIP, 20 nM TopBP1, 20 nM RPA, and 40 nM p53 were initially incubated on ice for 15 min. Reactions were initiated by the addition of 100 μM ATP and 1 ng M13mp18 ssDNA plasmid and incubated at 37°C for 1 hr. Reactions were quenched by the addition of 6x Laemmli buffer and brief boiling at 95°C. For reactions with RPAi, inhibitors were added for the initial 15 min incubation on ice. For reactions with pRPA, the indicated proteins (same concentrations as above) were incubated with 0.5 ng/μL DNA-PK, 100 μM ATP, and 1 ng M13mp18 ssDNA plasmid for 30 min at 37°C. Reactions were moved back to ice and 100 nM NU7441 was added to inhibit further DNA-PK kinase activity (for subsequent ATR kinase reactions) or quenched with 6x Laemmli buffer and brief boiling at 95°C (for control reactions). The remaining components required for ATR kinase reaction were then added to each reaction as indicated and returned to 37°C for 1 hr before quenching in the same manner as above. Proteins were separated by SDS-PAGE and transferred to polyvinylidene difluoride (PVDF) membranes (Bio-Rad, 1620177). Immunoblotting for RPA32 pSer33 (Thermo Fisher Scientific, A300–246A), RPA32 pSer4/8 (Thermo Fisher Scientific, A300–245A), RPA32 (Thermo Fisher Scientific, PA5–2256), and TopBP1 pSer1138 (Thermo Fisher Scientific, PA5–114666) were conducted in Tris-buffered saline (TBS)/0.5% Tween20 and immunoblotting for p53 pSer15 (Cell Signaling Technology, 9284S), p53 (Cell Signaling Technology, 2524S), and RPA32 pThr21 (Thermo Fisher Scientific, PA5–104809) were conducted in TBS/0.1% Tween20. All membranes were blocked with 2% BSA in TBS/Tween20 and incubated rocking at 4°C overnight. Membranes were washed with TBS/Tween20 and incubated with the corresponding IgG-horseradish peroxidase (HRP) secondary antibody (Bio-Rad, 1706515 & 1706516) for two hours at room temperature with orbital shaking. […]
# RPA [1] = target: T2, RPA (Homo sapiens, UniProt P27694); conditions: read-out: in vitro RPA-DNA binding inhibition IC50; cited from earlier work
# T2 construct: His (C); made in house; host or cells: E. coli BL21(DE3)
# T2 sequence (P27694 whole entry): as the sequence (P27694 whole entry) above
# T2 sequence (P15927 whole entry partner): as the sequence (P15927 whole entry partner) above
# T2 sequence (P35244 whole entry partner): as the sequence (P35244 whole entry partner) above
# RPA [2] = target: T2, RPA; design: method as in PMID 25070753; conditions: cited from earlier work
# [3] = test system: ATR phosphorylation events; design: method as in PMID 25070753; conditions: cited from earlier work
# [4] = target: RPA (His-tagged heterotrimer RPA70/RPA32/RPA14) (UniProt P27694;P15927;P35244 1-616;1-270;1-121); test: EMSA; binding not disrupted by PAME 12.5-200 uM; PAME EMSA: 10 mM Tris pH 7.5, 10 mM NaCl, 10% glycerol, 25 C, 10 nM DNA, 7 nM (ssDNA) or 14 nM (duplex) RPA, 1% agarose; acetylation EMSA: 20 mM HEPES pH 7.8, 50 mM NaCl, 1 mM DTT, 5% DMSO, 0.001% NP-40, RT, 2.5 nM DNA, 6% native PAGE; conditions: protein: recombinant; tags: His (on RPA70, plasmid p11d-tRPA70-His); copies: 1;1;1; label: 5' IRDye700; single strand
# RPA (His-tagged heterotrimer RPA70/RPA32/RPA14), sequence (P27694 whole entry, chain 1 of 3): as the sequence (P27694 whole entry) above
# RPA (His-tagged heterotrimer RPA70/RPA32/RPA14), sequence (P15927 whole entry, chain 2 of 3): as the sequence (P15927 whole entry partner) above
# RPA (His-tagged heterotrimer RPA70/RPA32/RPA14), sequence (P35244 whole entry, chain 3 of 3): as the sequence (P35244 whole entry partner) above
molecule,measurement,setting,value
CCOc1ccc2cc(C3CC(c4ccc(I)cc4)=NN3C(=O)CCCC(=O)O)c(Cl)nc2c1 (stereo not drawn) [TDRL-551],IC50,ATR-ATRIP; read-out: IC50 for ATR-dependent RPA32 Ser33 phosphorylation,5 to 10 µM
same,IC50,ATR-ATRIP; read-out: IC50 for ATR-dependent RPA32 Thr21 phosphorylation,5 to 10 µM
same,IC50,ATR-ATRIP; read-out: IC50 for ATR-dependent p53 Ser15 phosphorylation,5 to 10 µM
same,RPA phosphorylation at RPA32 Ser33 and Thr21 at low inhibitor concentration,"ATR-ATRIP; low concentrations of inhibitor (Fig. 2C, lane 3), not observed with p53 Ser15",stimulated
same,ATR-dependent phosphorylation of RPA32 Ser33 and Thr21,ATR-ATRIP,dose-dependent inhibition
same,ATR-dependent phosphorylation of p53 Ser15,ATR-ATRIP,titratable inhibition
same,IC50,RPA [1],~15 µM
CS(=O)(=O)c1ccc(-c2cnc(N)c(C(=O)Nc3ccccc3)n2)cc1 [VE-821],ATR-dependent phosphorylation of RPA32 Ser33 and Thr21,ATR-ATRIP,abolished
same,ATR-dependent phosphorylation of p53 Ser15,ATR-ATRIP,no p53 phosphorylation is observed
"O=C1C=Cc2ccccc2/C1=C/Nc1ccccc1O [HAMNO, (1Z)-1-[(2-hydroxyanilino)methylidene]naphthalen-2-one]",IC50 for RPA32 phosphorylation (both residues) lower than that of p53 phosphorylation,ATR-ATRIP; RPA32 Ser33 and Thr21 vs p53 Ser15,~ 10 fold
same,ATR-dependent phosphorylation of RPA32 Ser33 and Thr21,ATR-ATRIP,inhibited
same,ATR-dependent phosphorylation of p53 Ser15,ATR-ATRIP,inhibited
same,RPA ssDNA binding,RPA [2],did not disrupt
same,levels of ATR phosphorylation events in treated cells,[3],lower levels of ATR phosphorylation events
TTTTTTTTTTTTTTTTTTTTTTTTTTTTTT (ssDNA) [polyT 30mer],binding result,[4],binds
